Measured values as given in US20160152679A1, “RELAXIN-LIKE COMPOUNDS AND USES THEREOF” (ANGION BIOMEDICA CORP., priority 2012, published 2016).

Test system: parental HEK-293T cells
Test: cAMP-Glo assay in parental HEK-293T cells lacking RXFP1
Format: cell-based
Details: parental HEK-293T cells (lack RXFP1); relaxin 10 ng/mL or compound 10 µg/mL; 30 or 60 min

## relaxin
  cAMP response in parental cells: no cAMP response
